Results from paper PMC3150407, “Differential Inhibitor Sensitivity between Human Kinases VRK1 and VRK2” (PLoS ONE, 2011).
Where two headings read alike, the source gives them in different places.

Legend:
GST-VRK1 [1] = molecular target: T1, GST-VRK1 (Homo sapiens, UniProt Q99986); experiment: In vitro kinase assay, GST-VRK1 autophosphorylation; assay type: biochemical; settings: 5 µM ATP; average of three experiments, ± standard deviation; No inhibition is lack of effect at 100 µM
T1 construct: made in house
T1 sequence (Q99986 1-396): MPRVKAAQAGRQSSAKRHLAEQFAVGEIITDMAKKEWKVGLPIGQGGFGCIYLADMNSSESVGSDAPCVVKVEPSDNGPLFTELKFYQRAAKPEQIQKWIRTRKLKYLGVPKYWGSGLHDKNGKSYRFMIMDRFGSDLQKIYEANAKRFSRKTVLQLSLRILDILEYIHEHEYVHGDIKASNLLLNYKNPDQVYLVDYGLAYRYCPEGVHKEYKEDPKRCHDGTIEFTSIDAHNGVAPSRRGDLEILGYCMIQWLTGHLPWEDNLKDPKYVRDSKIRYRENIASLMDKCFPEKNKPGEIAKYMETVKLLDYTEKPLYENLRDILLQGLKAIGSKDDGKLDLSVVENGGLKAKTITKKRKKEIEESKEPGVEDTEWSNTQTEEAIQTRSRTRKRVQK

GST-VRK1 [2] = molecular target: T1, GST-VRK1; experiment: In vitro kinase assay, GST-VRK1 phosphorylation of histone H3; assay type: biochemical; settings: 5 µM ATP; average of three experiments, ± standard deviation; No inhibition is lack of effect at 100 µM
GST-VRK2A [3] = molecular target: T2, GST-VRK2A (Homo sapiens, UniProt Q86Y07); experiment: In vitro kinase assay, GST-VRK2A autophosphorylation; assay type: biochemical; settings: for IC50: read-out: IC50 (µM) GST-VRK2A Auto-phosphorylation
T2 construct: a full-length protein of 508 aminoacids (known as VRK2 and VRK2A); made in house; host or cells: E. coli BL21

GST-VRK2A [4] = molecular target: T2, GST-VRK2A; experiment: In vitro kinase assay, GST-VRK2A phosphorylation of histone H3; assay type: biochemical
VRK2A = molecular target: T3, VRK2A (Homo sapiens, UniProt Q86Y07); experiment: In vitro kinase assay, VRK2A kinase activity (autophosphorylation and H3 phosphorylation); assay type: biochemical
T3 construct: a full-length protein of 508 aminoacids (known as VRK2 and VRK2A); made in house; host or cells: E. coli BL21

Cdk1 = settings: Table S1, known target value; no reference given; read-out: Kinase target (IC50) Cdk1; cited from earlier work
Cdk1/cyclinB = settings: read-out: Fifty percent inhibition of Cdk1/cyclinB; cited from earlier work
human VRK1 = molecular target: T4, human VRK1 (Homo sapiens, UniProt Q99986); experiment: In vitro kinase assay, VRK1 kinase activity (autophosphorylation and H3 phosphorylation); assay type: biochemical
T4 construct: made in house
T4 sequence (Q99986 1-396): T1 sequence (Q99986 1-396)

B-RafV600E = settings: Table S1, known target value; no reference given; read-out: Kinase target (IC50) B-RafV600E; cited from earlier work
B-Raf = settings: Table S1, known target value; no reference given; read-out: Kinase target (IC50) B-Raf; cited from earlier work
JNK = settings: Table S1, known target value; no reference given; read-out: Kinase target (IC50) JNK; cited from earlier work
VRK2B = molecular target: T5, VRK2B (Homo sapiens, UniProt Q86Y07); experiment: In vitro kinase assay, VRK2B kinase activity; assay type: biochemical; settings: inhibitor 100 µM, 5 µM ATP
T5 construct: made in house; host or cells: E. coli BL21

Aurora C kinase = settings: Table S1, known target value; no reference given; cited from earlier work
GSK-3β = settings: Table S1, known target value; no reference given; read-out: Kinase target (IC50) GSK3β; cited from earlier work
CDK = settings: read-out: Kinase target (IC50) CDK; Table S1, known target value; no reference given; cited from earlier work
[5] = inhibitor 100 µM, 5 µM ATP, autophosphorylation and H3 phosphorylation
[6] = 5 µM ATP, average of three experiments, ± standard deviation, No inhibition is lack of effect at 100 µM

T2 sequence (Q86Y07 whole entry): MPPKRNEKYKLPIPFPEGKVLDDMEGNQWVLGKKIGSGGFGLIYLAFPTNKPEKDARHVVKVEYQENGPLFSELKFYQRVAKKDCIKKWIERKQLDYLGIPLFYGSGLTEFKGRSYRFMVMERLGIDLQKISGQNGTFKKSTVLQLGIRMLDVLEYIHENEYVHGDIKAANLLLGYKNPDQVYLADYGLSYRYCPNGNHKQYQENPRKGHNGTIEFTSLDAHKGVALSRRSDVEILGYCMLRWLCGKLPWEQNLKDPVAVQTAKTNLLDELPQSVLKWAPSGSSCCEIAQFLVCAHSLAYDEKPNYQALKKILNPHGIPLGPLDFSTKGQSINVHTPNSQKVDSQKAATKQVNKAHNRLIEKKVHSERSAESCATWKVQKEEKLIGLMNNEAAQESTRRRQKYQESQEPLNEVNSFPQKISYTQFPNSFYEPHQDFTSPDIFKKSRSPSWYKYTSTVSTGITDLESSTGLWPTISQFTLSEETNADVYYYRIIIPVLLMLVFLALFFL
T3 sequence (Q86Y07 whole entry): as above
T5 sequence (Q86Y07 1-397 isoform Q86Y07-2): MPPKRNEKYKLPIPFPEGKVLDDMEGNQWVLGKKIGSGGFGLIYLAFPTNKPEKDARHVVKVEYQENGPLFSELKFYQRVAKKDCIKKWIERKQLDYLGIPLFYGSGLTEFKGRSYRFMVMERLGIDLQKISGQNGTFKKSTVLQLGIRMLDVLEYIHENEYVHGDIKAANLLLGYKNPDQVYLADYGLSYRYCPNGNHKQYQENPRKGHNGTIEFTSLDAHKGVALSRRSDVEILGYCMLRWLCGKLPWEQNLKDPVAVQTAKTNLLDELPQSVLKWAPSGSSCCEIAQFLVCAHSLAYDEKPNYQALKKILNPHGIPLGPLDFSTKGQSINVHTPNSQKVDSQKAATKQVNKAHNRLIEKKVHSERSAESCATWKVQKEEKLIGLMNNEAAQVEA

| Molecule | IC50 (µM) GST-VRK1 Auto- phosphorylation (GST-VRK1 [1]) | IC50 (µM) GST-VRK1 H3 phosphorylation (GST-VRK1 [2]) | IC50 (GST-VRK2A [3]) | IC50 (GST-VRK2A [4]) | Effect on VRK2 (VRK2A) kinase activity at 100 µM inhibitor (in words) (VRK2A; [5]) | Effect on VRK1 kinase activity at 100 µM inhibitor (in words) (human VRK1; [5]) | further results |
| --- | --- | --- | --- | --- | --- | --- | --- |
| O=C1Nc2ccccc2C1=Cc1c(Cl)[nH]c2ccccc12 [Cdk1 Inhibitor, 3-(2-Chloro-3-indolylmethylene)-1,3-dihydroindol-2-one] | No inhibition | No inhibition | 11.2 ± 1.33 µM | 10.8 ± 1.29 µM | more sensitive |  | IC50 (VRK2A; 5 µM ATP, H3 phosphorylation or autophosphorylation, read-out: Concentration giving fifty percent inhibition of VRK2A activity): 4 µM; IC50 (Cdk1): 5.8 µM; IC50 (Cdk1/cyclinB): 5.8 µM |
| OCCn1cc(-c2ccc3c(c2)CCC3=NO)c(-c2ccncc2)n1 [GDC-0879, 5-[1-(2-Hydroxy-ethyl)-3-pyridin-4-yl-1H-pyrazol-4-yl]-indan-1-one oxime] | No inhibition | No inhibition |  |  | None of them was able to induce a significant inhibition | None of them was able to induce a significant inhibition | IC50 (B-RafV600E): 0.00013 µM |
| CCCS(=O)(=O)Nc1ccc(F)c(C(=O)c2c[nH]c3ncc(Cl)cc23)c1F [PLX-4720, N-(3-(5-chloro-1H-pyrrolo[2,3-b]pyridine-3-carbonyl)-2,4-difluorophenyl)propane-1-sulfonamide] | No inhibition | No inhibition |  |  | None of them was able to induce a significant inhibition | None of them was able to induce a significant inhibition | IC50 (µM) GST-VRK2A Auto-phosphorylation (GST-VRK2A [3]; [6]): No inhibition; IC50 (µM) GST-VRK2A H3 phosphorylation (GST-VRK2A [4]; [6]): No inhibition; IC50 (B-Raf): […] |
| Oc1c2ccccc2c2c3c(cccc13)N=N2 [SP600125, Anthra[1,9-cd]pyrazol-6(2H)-one, 1,9-pyrazoloanthrone] | No inhibition | No inhibition | 27.6 ± 1.09 µM | 11.1 ± 1.21 µM | None of them was able to induce a significant inhibition | None of them was able to induce a significant inhibition | IC50 (JNK): 0.04 µM |
| Cc1cc(Nc2cc(N3CCN(C)CC3)nc(Sc3ccc(NC(=O)C4CC4)cc3)n2)[nH]n1 [VX-680, N-[4-[4-(4-Methylpiperazin-1-yl)-6-(3-methyl-1H-pyrazol-5-ylamino)pyrimidin-2-sulfanyl]phenyl]-cyclopropanecarboxamide] | No inhibition | No inhibition |  |  | without noticeable inhibitory effect | without noticeable inhibitory effect | Effect on VRK2B kinase activity at 100 µM inhibitor (in words) (VRK2B): without noticeable inhibitory effect; IC50 (Aurora C kinase): […] |
| Indirubin-3’-monoxime |  |  |  |  |  |  | Effect on VRK1 kinase activity at 100 µM inhibitor (in words) (human VRK1): little effect; Effect on VRK2 (VRK2A) kinase activity at 100 µM inhibitor (in words) (VRK2A): little effect; IC50 (GSK-3β): 0.005 to 0.05 µM; IC50 (CDK): 0.05 to 0.1 µM |
